30 molecules from patent US7790761B2, “Blockade of voltage dependent sodium channels” (University College London, priority 2000, dated 2010) can be followed below.

For the assay, the system named is sodium channels. In words: [14C]-labelled guanidine flux through sodium channels. It counts as biochemical, rat. The following applies: inhibition of flux of [14C]-labelled guanidine through sodium channels.
As usually defined, the IC50 is the point on the concentration scale where inhibition reaches its midpoint. A low value points to greater potency. For “5-[3-tert-Butyl-1-(2,4-dichlorobenzyl)pyrazol-5-yl]-4-methyltriazole-3-thiol”, the IC50 was less than 9 µM.

As to `Cn1c(SCC(=O)C(C)(C)C)nnc1-c1cc(C(C)(C)C)nn1Cc1ccc(F)cc1` [1-{5-[5-tert-Butyl-2-(4-fluoro-benzyl)-2H-pyrazol-3-yl]-4-methyl-4H-[1,2,4]triazol-3-ylsulfanyl}-3,3-dimethyl-butan-2-one], the IC50 amounted to 13 µM.

The molecule `CC(C)(C)c1cc(C(=O)Nc2ccc(Br)c(Cl)c2)n(Cc2ccccc2)n1` [2-Benzyl-5-tert-butyl-2H-pyrazole-3-carboxylic acid (4-bromo-3-chloro-phenyl)-amide] had a half-maximal inhibitory concentration (IC50) of 3 µM.

Molecule `CC(C)(C)c1cc(C(=O)Nc2ccc(Cl)cc2)n(Cc2ccccc2)n1` [2-Benzyl-5-tert-butyl-2H-pyrazole-3-carboxylic acid (4-chloro-phenyl)-amide] returned an IC50 of 4.4 µM.

On to `CC(C)(C)c1cc(C(=O)NNC(=O)Nc2cccc(C(F)(F)F)c2)n(Cc2ccccc2)n1` [2-Benzyl-5-tert-butyl-2H-pyrazole-3-carboxylic arid N′-(3-trifluoromethylphenylcarbamoyl)hydrazide], for which the midpoint of inhibition, the IC50, lay at 0.5 µM.

Take `CCn1nc(C)cc1-c1nnc(SCc2ccccc2)n1-c1ccccc1` [3-(Benzylthio)-5-(1-ethyl-3-methyl-1H-pyrazol-5-yl)-4-phenyl-4H-1,2,4-triazolehemihydrate]: half-maximal inhibition (IC50) required 20 µM.

Consider `C#CCSc1nnc(-c2cc(C(C)(C)C)nn2Cc2ccc(Cl)cc2Cl)n1-c1ccccc1` [3-[3-(tert-Butyl)-1-(2,4-dichlorobenzyl)-1H-pyrazol-5-yl]-4-phenyl-5-(prop-2-ynylthio)-4H-1,2,4-tziazole], for which the IC50 came out at 18 µM.

Regarding `Cc1ccc(Cn2nc(C(=O)Nc3ccccc3)cc2C)cc1` [5-Methyl-1-(4-methyl-benzyl)-1H-pyrazole-3-carboxylic acid phenylamide], it took 23 µM to reach half-maximal inhibition (IC50).

Molecule `Cc1ccc(Cn2nc(C)cc2C(=O)Nc2cccc(C(F)(F)F)c2)cc1` [5-Methyl-2-(4-methyl-benzyl)-2H-pyrazole-3-carboxylic acid (3-trifluoromethyl-phenyl)-amide] gave an IC50 of 6 µM.

`Cc1cccc(Cn2nc(C(C)(C)C)cc2-c2nnc(S)n2C2CCCCC2)c1` [5-[3-(tert-Butyl)-1-(3-methylbenzyl)pyrazol-5-yl]-4-cyclohexyl-1,2,4-triazole-3-thiol]: the IC50 is less than 9 µM.

The molecule `CCOC(=O)CSc1nnc(-c2cc(C(C)(C)C)nn2Cc2cccc(C)c2)n1C1CCCCC1` [Ethyl 2-([5-[3-(tert-butyl)-1-(3-methylbenzyl)-1H-pyrazol-5-yl]-4-cyclohexyl-4H-1,2,4-triazol-3-yl]thio)acetate] came in with an IC50 of less than 9 µM.

On to `O=C(NO)c1ccc(-c2nn(Cc3ccccc3)c3ccccc23)o1` [Example 6, 1-Benzyl-3-(5-hydroxylaminocarbonyl-2-furyl)-1H-indazole], for which it took 30.9 µM to reach half-maximal inhibition (IC50).

Take `CC(C)(C)c1cc(C(=O)Nc2ccccc2)n(Cc2ccccc2)n1` [Example 9, 2-Benzyl-5-tert-butyl-2H-pyrazole-3-carboxylic acid phenylamide]: the IC50 is less than 9 µM.

Take `CC(C)(C)c1cc(C(=O)NCc2ccccc2)n(Cc2ccccc2)n1` [Example 10, 2-Benzyl-5-tert-butyl-2H-pyrazole-3-carboxylic acid benzylamide]: the IC50 came to 7 µM.

The molecule `O=C(Nc1ccccc1)c1cc(-c2ccccc2)n(-c2ccc(Cl)cc2)n1` [Example 11, 1-(4-Chloro-phenyl)-5-phenyl-1H-pyrazole-3-carboxylic acid phenylamide] yielded an IC50 of 18 µM.

With `COc1ccc(NC(=O)c2cc(C(C)(C)C)nn2Cc2ccc(Cl)cc2Cl)cc1` [Example 12, 5-tert-Butyl-2-(2,4-dichloro-benzyl)-2H-pyrazole-3-carboxylic acid (4-methoxy-phenyl)-amide], the IC50 is less than 9 µM.

On to `CCn1nc(-c2cccs2)cc1C(=O)Nc1ccc(Cl)cc1` [Example 13, 2-Ethyl-5-thiophen-2-yl-2H-pyrazole-3-carboxylic acid (4-chloro-phenyl)-amide], for which half-maximal inhibition (IC50) was put at 17 µM.

The molecule `CC(C)(C)c1cc(C(=O)Nc2ccc(Cl)cc2)n(Cc2ccc(Cl)cc2Cl)n1` [Example 14, (S)-5-tert-Butyl-2-(2,4-dichloro-benzyl)-2H-pyrazole-3-carboxylic acid (4-chloro-phenyl)-amide] had a concentration for half-maximal inhibition (IC50) of 29 µM.

Take `CC(C)(C)c1cc(C(=O)NCCc2ccccc2)n(Cc2ccc(Cl)cc2Cl)n1` [Example 15, 5-tert-Butyl-2-(2,4-dichloro-benzyl)-2H-pyrazole-3-carboxylic acid phenethyl-amide]: half-maximal inhibition (IC50) was put at 10 µM.

On to `CCn1nc(-c2cccs2)cc1C(=O)NCCc1ccccc1` [Example 16, (S)-2-Ethyl-5-thiophen-2-yl-2H-pyrazole-3-carboxylic acid phenethyl-amide], for which the IC50 is 13 µM.

Turning to `CC(C)(C)c1cc(C(=O)Nc2ccccc2)n(Cc2ccc(Cl)cc2Cl)n1` [Example 17, 5-tert-Butyl-2-(2,4-dichloro-benzyl)-2H-pyrazole-3-carboxylic acid phenylamide], the midpoint of inhibition, the IC50, lay at 10 µM.

Molecule `CC(C)(C)c1cc(C(=O)NCc2ccccc2)n(Cc2ccc(Cl)cc2Cl)n1` [Example 18, 5-tert-Butyl-2-(2,4-dichloro-benzyl)-2H-pyrazole-3-carboxylic acid benzylamide] yielded an IC50 of 9 µM.

With `CN(C)c1ccc(NC(=O)c2cc(-c3ccccc3)n(-c3ccc(Cl)cc3)n2)cc1` [Example 19, 1-(4-Chloro-phenyl)-5-phenyl-1H-pyrazole-3-carboxylic acid (4-dimethylamino-phenyl)-amide], the IC50 was determined as 5 µM.

Molecule `CC(C)(C)c1ccc(NC(=O)c2cc(-c3ccccc3)n(-c3ccc(Cl)cc3)n2)cc1` [Example 20, 1-(4-Chloro-phenyl)-5-phenyl-1H-pyrazole-3-carboxylic acid (4-tert-butyl-phenyl)-amide] came in with a half-inhibitory concentration (IC50) of 20 µM.

As to `Cc1cc(C(=O)Nc2ccc(C(C)(C)C)cc2)n(C(C)(C)C)n1` [Example 21, 2-tert-Butyl-5-methyl-2H-pyrazole-3-carboxylic acid (4-tert-butyl-phenyl)-amide], the IC50 is less than 9 µM.

With `Cc1cc(C(=O)Nc2ccc(Cl)c(Cl)c2)n(C(C)(C)C)n1` [Example 22, 2-tert-Butyl-5-methyl-2H-pyrazole-3-carboxylic acid (3,4-dichloro-phenyl)-amide], the IC50 was less than 9 µM.

Turning to `Cn1nc(C(C)(C)C)cc1C(=O)Nc1ccc(Cl)c(Cl)c1` [Example 23, 5-tert-Butyl-2-methyl-2H-pyrazole-3-carboxylic acid (3,4-dichloro-phenyl)-amide], the IC50 was less than 9 µM.

Regarding `CC(C)(C)c1cc(C(=O)Nc2ccc(Cl)c(Cl)c2)n(Cc2ccccc2)n1` [Example 24, 2-Benzyl-5-tert-butyl-2H-pyrazole-3-carboxylic acid (3,4-dichloro-phenyl)-amide], the IC50 was less than 9 µM.

Consider `CC(C)(C)c1ccc(NC(=O)c2cc(C(C)(C)C)nn2Cc2ccccc2)cc1` [Example 25, 2-Benzyl-5-tert-butyl-2H-pyrazole-3-carboxylic acid (4-tert-butyl-phenyl)-amide], for which half-maximal inhibition (IC50) was put at 18 µM.

As to `CN(C)c1ccc(NC(=O)c2cc(C(C)(C)C)nn2Cc2ccccc2)cc1` [Example 27, 2-Benzyl-5-tert-butyl-2H-pyrazole-3-carboxylic acid (4-dimethylamino-phenyl)-amide], the IC50 was less than 9 µM.
